Reference: patent US10406218B2 (priority 2014, dated 2019)
Like-named read-outs stand apart in the source and are kept apart here.

Experiments:
Type in all cases: cell-based, human
[1] = test system: IL-10 production by cells of HC donors; conditions: for IL-10 SFC: HC donors; for # resp IL-10: number of responding HC donors out of # tested (5 or 6)
[2] = test system: IFNγ production by cells of HC donors; assay: IFNγ production (SFC) in HC donors in response to broadly conserved peptides; conditions: for IFNg SFC: HC donors; for # resp IFNg: number of responding HC donors out of # tested (5 or 6)
Experimental: To test this hypothesis, the HLA binding capacity of the 4241 broadly conserved peptides for common HLA class II alleles was predicted. Next peptides were selected predicted to bind with high affinity to alleles expressed in representative HC donors were tested for IL-10 production. Several frequently recognized IL-10 producing peptides could be identified (FIG. 13A), none of which produced a significant amount of IFNγ (FIG. 13B).

[3] = test system: PBMC from 30 HC individuals; assay: ex vivo IFNγ ELISPOT with NTM-specific peptides
[4] = response frequency among HC donors, NTM-specific peptides (Table 2)
[5] = total spot forming cells, IFNγ ELISPOT, NTM-specific peptides (Table 2)

| Substance | IL-10 SFC [1] | # resp IL-10 [1] | IFNg SFC [2] | # resp IFNg [2] | Resp Freq [3] | Total SFC [3] | Resp Freq [3, 4] | Total SFC [3, 5] |
| --- | --- | --- | --- | --- | --- | --- | --- | --- |
| APFISEFLVLLGTFS [Peptide 3580.0005] | 585 SFC | 3 | 15 SFC | 0 | – | – | – | – |
| ASGLIFGWLAFLLVF [Peptide 3580.0018] | 652 SFC | 4 | 20 SFC | 0 | – | – | – | – |
| GRFIALLRIFAGPLA [Peptide 3580.0011] | 1480 SFC | 5 | 52 SFC | 0 | – | – | – | – |
| FVTYWSFRMMIGLMA [Peptide 3580.0003] | 563 SFC | 4 | 10 SFC | 0 | – | – | – | – |
| LAMFAIIFFWTPPHT [Peptide 3580.0016] | 1142 SFC | 5 | 27 SFC | 0 | – | – | – | – |
| AELTRVRQQVIQLLS [Peptide 3580.0001] | 733 SFC | 4 | 27 SFC | 0 | – | – | – | – |
| ESFLFYSGFYLPMYW [Peptide 3580.0002] | 570 SFC | 4 | 8 SFC | 0 | – | – | – | – |
| MVAFMVRYTSGYLCV [Peptide 3580.0017] | 1058 SFC | 4 | 8 SFC | 0 | – | – | – | – |
| ATFAGIYFWFPKMTG [Peptide 3580.0008] | 1328 SFC | 6 | 28 SFC | 0 | – | – | – | – |
| ASVSKQFTATAILLL [Peptide 3580.0013] | 918 SFC | 4 | 23 SFC | 0 | – | – | – | – |
| RELIRAFWPGALSLV [Peptide 3580.0019] | 422 SFC | 3 | 27 SFC | 0 | – | – | – | – |
| LPFFSFMTYLIAVPT [Peptide 3580.0007] | 505 SFC | 4 | 22 SFC | 0 | – | – | – | – |
| ASCKYMKMITPAALL [Peptide 3580.0015] | 730 SFC | 4 | 32 SFC | 0 | – | – | – | – |
| PLAENYLRLNALGAY [Peptide 1364] | – | – | – | – | 3% | 228 SFC | 3% | 228 SFC |
| 1141 (HAEYKQVTVLFADVV) [Peptide 1141] | – | – | – | – | – | – | 3% | 38 SFC |
| SQRLVTLSYRLDAAA [Peptide 1471] | – | – | – | – | 7% | 58 SFC | 7% | 58 SFC |
| 586 (ELVWLGAAMIIGAGS) [Peptide 586] | – | – | – | – | – | – | 3% | 37 SFC |
| 871 (LVYLVGFKTKVSTLL) [Peptide 871] | – | – | – | – | – | – | 3% | 28 SFC |
| FAIMFEALFILTTVD [Peptide 3580.0006] | 915 SFC | 5 | 32 SFC | 0 | – | – | – | – |
| 1218 (RTFFRYFPTKESVLF) [Peptide 1218] | – | – | – | – | – | – | 3% | 48 SFC |
| ALLYIPLLTRMLMNL [Peptide 777] | – | – | – | – | 7% | 87 SFC | 7% | 87 SFC |
| 712 (VVLMIFRPQGLFPAR) [Peptide 712] | – | – | – | – | – | – | 3% | 27 SFC |
| ETTRNLIALGTLALI [Peptide 829] | – | – | – | – | 3% | 93 SFC | 3% | 93 SFC |
| 1285 (PADASIVKLYYSELL) [Peptide 1285] | – | – | – | – | – | – | 3% | 53 SFC |
| 1331 (VEAGMVYVTLPPLFV) [Peptide 1331] | – | – | – | – | – | – | 3% | 58 SFC |
| 88 (ALVLVSLLTALAAGI) [Peptide 88] | – | – | – | – | – | – | 3% | 28 SFC |
| 1474 (MFETMAAFMLVEHAN) [Peptide 1474] | – | – | – | – | – | – | 3% | 23 SFC |
| 1204 (TPGLNLVYAHLNRII) [Peptide 1204] | – | – | – | – | – | – | 3% | 30 SFC |

| Substance | IL-10 SFC [1] | # resp IL-10 [1] | IFNg SFC [2] | # resp IFNg [2] | Resp Freq [3] | Total SFC [3] | Resp Freq [3, 4] | Total SFC [3, 5] |
| --- | --- | --- | --- | --- | --- | --- | --- | --- |
| 732 (PLRVAFLIVLIGTTV) [Peptide 732] | – | – | – | – | – | – | 3% | 33 SFC |
| 1072 (HIELALYRIAQECLQ) [Peptide 1072] | – | – | – | – | – | – | 3% | 37 SFC |
| 628 (LGVFPLIVMFLITSI) [Peptide 628] | – | – | – | – | – | – | 3% | 53 SFC |
| 1284 (NAVLFLASDEARYIT) [Peptide 1284] | – | – | – | – | – | – | 3% | 25 SFC |
| 1368 (TMMLSLVWPIASLGF) [Peptide 1368] | – | – | – | – | – | – | 3% | 40 SFC |
| 714 (AFTHFALLANVAEDI) [Peptide 714] | – | – | – | – | – | – | 3% | 35 SFC |
| 540 (VVYAFMSLFVVNVVV) [Peptide 540] | – | – | – | – | – | – | 3% | 25 SFC |
| QWGYRMVLPQLILMP [Peptide 868] | – | – | – | – | 3% | 58 SFC | 3% | 58 SFC |
| 588 (HLFQVMAFVVMEPPT) [Peptide 588] | – | – | – | – | – | – | 3% | 52 SFC |
| 537 (VEPVDISNAVLFLAS) [Peptide 537] | – | – | – | – | – | – | 3% | 43 SFC |
| 760 (AEWVVRTILSLLTVR) [Peptide 760] | – | – | – | – | – | – | 3% | 38 SFC |
| 400 (MKELLAENLMVMMRD) [Peptide 400] | – | – | – | – | – | – | 3% | 32 SFC |
| 1529 (EGIVFALGGALDFSY) [Peptide 1529] | – | – | – | – | – | – | 3% | 23 SFC |
| 257 (FFHIYGMTVLLNAAL) [Peptide 257] | – | – | – | – | – | – | 3% | 35 SFC |
| HQGLAFLLADMAAAV [Peptide 8] | – | – | – | – | 3% | 58 SFC | 3% | 58 SFC |
| 1458 (HFVSTLSATFPEGED) [Peptide 1458] | – | – | – | – | – | – | 3% | 47 SFC |
| 1134 (TLLTMLWQNLIGNAV) [Peptide 1134] | – | – | – | – | – | – | 3% | 47 SFC |
| 621 (AKVLGVFLVTEIVML) [Peptide 621] | – | – | – | – | – | – | 3% | 27 SFC |
| 861 (MVFATLLPLGVLQLY) [Peptide 861] | – | – | – | – | – | – | 3% | 47 SFC |
| 447 (DDRRTLLWLANQRAV) [Peptide 447] | – | – | – | – | – | – | 3% | 53 SFC |
| 1350 (LFFLFPLYAMADFST) [Peptide 1350] | – | – | – | – | – | – | 3% | 30 SFC |
| LGVAALLFGFPIFFD [Peptide 391] | – | – | – | – | 3% | 77 SFC | 3% | 77 SFC |
| KWETFLTQELPAYLA [Peptide 741] | – | – | – | – | 13% | 248 SFC | 13% | 248 SFC |
| 645 (PASILILFAPGAPRE) [Peptide 645] | – | – | – | – | – | – | 3% | 23 SFC |
| 1075 (SPEQAYLLLGAAPIE) [Peptide 1075] | – | – | – | – | – | – | 3% | 22 SFC |
| 47 (VEFFRAVPVLIMMIF) [Peptide 47] | – | – | – | – | – | – | 3% | 40 SFC |
| 1255 (GNELWQIALLELWLQ) [Peptide 1255] | – | – | – | – | – | – | 3% | 37 SFC |
